In patent US7893256B2, “Azabicycloalkane compounds” (Theravance, Inc., priority 2003, dated 2011):
pKi: −log10 of the molar value.

Legend:
hM2 receptor [1] = biological target: T1, hM2 receptor (Homo sapiens, UniProt P08172); assay: Blockade of agonist-mediated [35S]GTPγS binding (Assay Test Procedure D, B); format: biochemical; conditions: CHO-K1 cells expressing the hM2 receptor; read-out: Ki value for blockade of oxotremorine-stimulated [35S]GTPγS binding
T1 construct: expressed in transfected cells; host or cells: CHO-K1 cells
T1 sequence (P08172 1-466): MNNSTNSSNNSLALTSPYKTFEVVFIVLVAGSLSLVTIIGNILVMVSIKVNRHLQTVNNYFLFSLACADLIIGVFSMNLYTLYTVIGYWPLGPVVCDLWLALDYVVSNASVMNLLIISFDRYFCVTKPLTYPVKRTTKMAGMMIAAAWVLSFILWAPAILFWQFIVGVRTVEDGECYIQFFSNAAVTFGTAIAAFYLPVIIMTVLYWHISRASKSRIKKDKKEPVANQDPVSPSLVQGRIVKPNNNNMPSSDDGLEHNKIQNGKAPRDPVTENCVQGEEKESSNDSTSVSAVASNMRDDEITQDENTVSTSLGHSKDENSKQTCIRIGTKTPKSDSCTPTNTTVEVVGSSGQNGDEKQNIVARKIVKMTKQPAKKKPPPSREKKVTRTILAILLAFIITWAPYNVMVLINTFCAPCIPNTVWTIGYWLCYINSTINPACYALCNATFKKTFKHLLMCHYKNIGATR
Description: In a second functional assay, the functional potency of test compounds was determined by measuring the ability of the compounds to block oxotremorine-stimulated [^35S]GTPγS binding in CHO-K1 cells expressing the hM2 receptor.
At the time of use, frozen membranes were thawed and then diluted in assay buffer with a final target tissue concentration of 5-10 μg protein per well. The membranes were briefly homogenized using a Polytron PT-2100 tissue disrupter and then added to the assay plates.
The EC90 value (effective concentration for 90% maximal response) for stimulation of [^35S]GTPγS binding by the agonist oxotremorine was, determined in each experiment.
To determine the ability of a test compound to inhibit oxotremorine-stimulated [^35S]GTPγS binding, the following was added to each well of 96 well plates: […] of assay buffer with [^35S]GTPγS (0.4 nM), 25 μL of oxotremorine (EC90) and GDP (3 uM), 25 μL of diluted test compound and 25 μL CHO cell membranes expressing the hM2 receptor. […] Microscint-20 scintillation liquid (50 μL) was added to each well, and each plate was sealed and radioactivity counted on a Topcounter (PerkinElmer). Data were analyzed by nonlinear regression analysis with the GraphPad Prism Software package (GraphPad Software, Inc., San Diego, Calif.) using the non-linear regression, one-site competition equation. […]

hM2 receptor [2] = biological target: T1, hM2 receptor; assay: Blockade of agonist-mediated inhibition of cAMP accumulation (Assay Test Procedure D, A); format: cell-based; conditions: CHO-K1 cells expressing the hM2 receptor; read-out: Ki value for blockade of oxotremorine-inhibition of forskolin-mediated cAMP accumulation
Description: In this assay, the functional potency of a test compound was determined by measuring the ability of the test compound to block oxotremorine-inhibition of forskolin-mediated cAMP accumulation in CHO-K1 cells expressing the hM2 receptor. cAMP assays were performed in a radioimmunoassay format using the Flashplate Adenylyl Cyclase Activation Assay System with ^125I-cAMP (NEN SMP004B, PerkinElmer Life Sciences Inc., Boston, Mass.), according to the manufacturer's instructions. Cells were rinsed once with dPBS and lifted with Trypsin-EDTA solution (0.05% trypsin/0.53 mM EDTA) as described in the Cell Culture and Membrane Preparation section above. The detached cells were washed twice by centrifugation at 650×g for five minutes in 50 mL dPBS. The cell pellet was then re-suspended in 10 mL dPBS, and the cells were counted with a Coulter Z1 Dual Particle Counter (Beckman Coulter, Fullerton, Calif.). […]
Reactions were incubated for 10 minutes at 37° C. and stopped by addition of 100 μL ice-cold detection buffer. Plates were sealed, incubated overnight at room temperature and counted the next morning on a PerkinElmer TopCount liquid scintillation counter (PerkinElmer Inc., Wellesley, Mass.). The amount of cAMP produced (pmol/well) was calculated based on the counts observed for the samples and cAMP standards, as described in the manufacturer's user manual. […]

C[N+]1(CCCCCCCCCNC[C@H](O)c2ccc(O)c3[nH]c(=O)ccc23)C2CC(OC(=O)C(O)(c3cccs3)c3cccs3)CC1C1OC12.C[N+]1(CCCCCCCCCNC[C@H](O)c2ccc(O)c3[nH]c(=O)ccc23)C2CC(OC(=O)C(O)(c3cccs3)c3cccs3)CC1C1OC12.O=C([O-])C(F)(F)F.O=C([O-])C(F)(F)F (stereo partly drawn) [Example 1, 7-(2-Hydroxy-2,2-dithiophen-2-ylacetoxy)-9-{9-[(R)-2-hydroxy-2-(8-hydroxy-2-oxo-1,2-dihydroquinolin-5-yl)ethylamino]nonyl}-9-methyl-3-oxa-9-azonia-tricyclo[3.3.1.0^2,4]nonane Ditrifluoroacetate]
pKi (hM2 receptor [1]): > 7.30 | pKi (hM2 receptor [2]): > 7.30
